Measurements taken from patent US20230052298A1, “LACTIC ACID BACTERIUM FERMENTATION PROMOTER” (MEIJI CO., LTD., priority 2019, published 2023).

Key:
[1] = test system: L. delbrueckii subsp. bulgaricus 2038; experiment: Test Example 2-1: fermentation time versus concentration of malic acid or fumaric acid; type: cell-based, Lactobacillus delbrueckii subsp. bulgaricus; settings: L. bulgaricus 2038; from Tables 3 and 4
Protocol: The fermentation was carried out using a fermentation medium (raw material milk). The fermentation medium was prepared by adding formic acid to the 10% reduced skim milk medium so as to give a final concentration of 1 mM, and then sterilizing the mixture at 95° C., and was used. […] In the above fermentation medium, a lactic acid bacterial starter of […] was inoculated at 0.5% (with respect to the amount of fermentation medium), statically cultured at 40° C., and fermented. The fermentation time was the time required for the medium to reach pH 4.6.

[2] = test system: L. delbrueckii subsp. bulgaricus 2038; experiment: Test Example 2-1: organic acid concentrations after fermentation (HPLC); type: cell-based, Lactobacillus delbrueckii subsp. bulgaricus; settings: strain 2038
Protocol: The fermentation was carried out using a fermentation medium (raw material milk). The fermentation medium was prepared by adding formic acid to the 10% reduced skim milk medium so as to give a final concentration of 1 mM, and then sterilizing the mixture at 95° C., and was used. […] In the above fermentation medium, a lactic acid bacterial starter of […] was inoculated at 0.5% (with respect to the amount of fermentation medium), statically cultured at 40° C., and fermented. The fermentation time was the time required for the medium to reach pH 4.6. The measurement of the organic acid concentration after the completion of fermentation was carried out as follows. An aliquot of 0.4 g of the fermentate obtained (fermented milk) was diluted by 2-fold with pure water, 20 μL of Carrez's Reagent I (53.5% (w/v) zinc sulfate) was added thereto and the mixture was vortexed, and 20 μl of Carrez's Reagent II (17.2% (w/v) potassium ferrocyanide) was added thereto and the mixture was vortexed. The resulting mixture was centrifuged at 4° C., 20620 g for 10 minutes, and the supernatant was filtered through a 0.22 μm filter and the filtrate was analyzed under the conditions shown in Table 2.

[3] = test system: Lactobacillus delbrueckii subsp. bulgaricus; experiment: Test Example 2-2: organic acid concentration in fermentate at completion of fermentation, formic acid medium; type: cell-based; settings: 1 mM additive, 1 mM formic acid medium
Protocol: (§1) The strains shown in Tables 6 and 7 were precultured in the preculture medium and then used. The activation medium used was a 10 mass % reduced skim milk medium containing 0.1 mass % yeast extract, sterilized at 121° C. for 7 minutes. Here, the 10 mass % reduced skim milk medium is a 10 mass % aqueous solution of skim milk powder (fat 1 mass %, protein 34 mass %, lactose 54 mass %, ash 8 mass %, non-fat milk solid 96 mass %) (manufactured by Meiji Co., Ltd.) (in the above medium, lactose 5.4 mass %, non-fat milk solid 9.6 mass %). Frozen bacteria were added to the above-mentioned activation medium in an amount of 0.1 mass % (with respect to the amount of the activation medium) and statically cultured at 37° C. for 16 hours to obtain an activation solution. An aliquot of 0.1 mass % of the activation solution obtained (with respect to the amount of activation medium) was added to another activation medium, and the mixture was allowed to stand at 37° C. for 16 hours to obtain a lactic acid bacterial starter. Then, fermentation was carried out using a fermentation medium as raw material milk. The fermentation medium was prepared by adding formic acid to the 10 mass % reduced skim milk medium so as to give a final concentration of 1 mM, and then sterilizing the mixture at 95° C., and was used. […] The pH of the fermentation medium was about 6.4. The lactic acid bacterial starter of each strain obtained above was inoculated into the fermentation medium in an amount of 2.5 mass % (with respect to the amount of the fermentation medium), statically cultured at 40° C., and fermented. The fermentation time was the time required for the medium to reach pH 4.6. The pH value was measured using a commercially available pH meter.

[4] = test system: L. rhamnosus; experiment: Test Example 5: organic acid concentrations after fermentation; type: cell-based, Lactobacillus rhamnosus; settings: 1 mM added
Protocol: (§2) The measurement of the organic acid concentration after the completion of fermentation was carried out as follows. An aliquot of 0.4 g of the fermentate obtained (fermented milk) was diluted by 2-fold with pure water, 20 μL of Carrez's Reagent I (53.5% (w/v) zinc sulfate) was added thereto and the mixture was vortexed, and 20 μl of Carrez's Reagent II (17.2% (w/v) potassium ferrocyanide) was added thereto and the mixture was vortexed. The resulting mixture was centrifuged at 4° C., 20620 g for 10 minutes, and the supernatant was filtered through a 0.22 μm filter and the filtrate was analyzed under the conditions shown in Table 2. [table] The measurement of the organic acid concentration after the completion of fermentation by L. rhamnosus and L. salivarius in Test Example 3 or 4 was carried out in the same manner as in Test Example 2-1. The addition of malic acid or fumaric acid promoted production of succinic acid by L. rhamnosus and L. salivarius.

[5] = test system: L. salivarius; experiment: as above; type: cell-based, Lactobacillus salivarius; settings: 1 mM added
Protocol: as §2

[6] = test system: Lactobacillus delbrueckii subsp. bulgaricus; experiment: Test Example 8: organic acid concentration in fermentate at completion of fermentation, inosinic acid medium; type: cell-based; settings: 1 mM additive, 1 mM inosinic acid medium
Protocol: as §1, with “Tables 13” for “Tables 6”, “and 14” for “and 7”, “adding inosinic” for “adding formic”

[7] = test system: Lactobacillus delbrueckii subsp. bulgaricus OLL1073R-1; experiment: Test Example 9: EPS production during culture; type: cell-based; settings: 4 mM added; strain OLL1073R-1; 37° C.; compared with the control
Protocol: Frozen bacteria of Lactobacillus delbrueckii subsp. bulgaricus OLL1073R-1 were prepared.
Raw material components other than anhydrous crystalline glucose were dissolved in Elix water, the mixture was adjusted to pH 6.65 using sodium hydroxide, and then diluted in measuring flask to 70 wt % of the charge amount of the medium. Anhydrous crystalline glucose was dissolved in Elix water, and diluted in measuring flask to 30 wt % of the charge amount of the medium.
In addition, the raw material components other than sugar solution and sugar were sterilized separately by heating at 110° C. for 1 minute in an autoclave and then aseptically mixed and used.
An aliquot of 1.5 kg of the above medium was adjusted to pH 5.4 using 6 N potassium carbonate, to the medium, 0.30 mass % of frozen bacteria (with respect to the amount of medium) was inoculated, and the bacteria were cultured at 37° C. while top ventilating with nitrogen at a flow rate of 0.5 L/min and stirring under the condition of 150 rpm.
The EPS concentration was measured under the following conditions. […]
The supernatant was removed by centrifuging (4° C., 13400 g, 20 min), and 20 ml of cooled 66% ethanol was added thereto to suspend the precipitate. […] The EPS concentration of the analysis sample was measured by the phenol-sulfuric acid method.

[8] = No addition of L. delbrueckii subsp. bulgaricus

| SMILES | Concentrations at which a fermentation promoting effect was confirmed [1] [mM] | Concentration of fumaric acid ([2]; 1 mM added) [mM] | Concentration of malic acid ([2]; 1 mM added) [mM] | Concentration of malic acid [3, 8] [mM] | Concentration of succinic acid [3, 8] [mM] | Concentration of succinic acid in fermentate at completion of fermentation (pH 4.6) ([3]; strain 2038) [mM] | Concentration of succinic acid in fermentate at completion of fermentation (pH 4.6) ([3]; strain OLL1073R-1) [mM] | Concentration of succinic acid in fermentate at completion of fermentation (pH 4.6) ([3]; strain OLL1171) [mM] | Concentration of succinic acid in fermentate at completion of fermentation (pH 4.6) ([3]; strain OLL1247) [mM] | Concentration of succinic acid in fermentate at completion of fermentation (pH 4.6) ([3]; strain OLL1255) [mM] | Concentration of succinic acid in fermentate at completion of fermentation (pH 4.6) ([3]; strain OLL205013) [mM] | Concentration of succinic acid in fermentate at completion of fermentation (pH 4.6) ([3]; strain P1902901) [mM] | Concentration of fumaric acid [5] [mM] | Concentration of malic acid [5] [mM] | Concentration of succinic acid [5] [mM] | Concentration of malic acid [6, 8] [mM] | Concentration of succinic acid [6, 8] [mM] | Concentration of succinic acid in fermentate at completion of fermentation (pH 4.6) ([6]; strain 0LL1171) [mM] | Concentration of succinic acid in fermentate at completion of fermentation (pH 4.6) ([6]; strain 2038) [mM] | Concentration of succinic acid in fermentate at completion of fermentation (pH 4.6) ([6]; strain OLL1073R-1) [mM] | further results |
| --- | --- | --- | --- | --- | --- | --- | --- | --- | --- | --- | --- | --- | --- | --- | --- | --- | --- | --- | --- | --- | --- |
| O=C(O)/C=C/C(=O)O [Fumaric acid, fumaric acid] | 0.01 to 2.5 | 0.00 | 0.00 | 0.11 | 0.07 | 1.67 | 1.73 | 1.58 | 1.72 | 1.49 | 1.54 | 1.59 | 0.62 | 0.51 | 0.29 | 0.13 | 0.06 | 1.43 | 1.43 | 1.52 | Concentration of fumaric acid [3, 8]: 1.11 mM; Concentration of fumaric acid in fermentate at completion of fermentation (pH 4.6) ([3]; strain OLL1255): 0.15 mM; Concentration of succinic acid [4]: 1.39 mM; Concentration of fumaric acid [6, 8]: 1.12 mM; Concentration of succinic acid in fermentate at completion of fermentation (pH 4.6) ([6]; strain OLL1247): 1.57 mM; Concentration of succinic acid in fermentate at completion of fermentation (pH 4.6) ([6]; strain OLL1255): 1.49 mM; Concentration of succinic acid in fermentate at completion of fermentation (pH 4.6) ([6]; strain OLL205013): 1.60 mM; Concentration of succinic acid in fermentate at completion of fermentation (pH 4.6) ([6]; strain P1902901): 1.40 mM; EPS concentration with the culturing time (FIG. 1) [7]: higher concentration compared with the control |
| O=C(O)CC(O)C(=O)O (centres unmarked) [Malic acid, malic acid] | 0.01 to 50 | 0.00 | 0.00 | 0.99 | 0.08 | 1.71 | 1.67 | 1.57 | 1.67 | 1.03 | 1.55 | 1.59 | 0.35 | 0.75 | 0.28 | 1.06 | 0.06 | 1.40 | 1.40 | 1.50 | Concentration of succinic acid ([2]; 1 mM added): 1.94 mM; Concentration of fumaric acid ([2]; 10 mM added): 0.03 mM; Concentration of malic acid ([2]; 10 mM added): 4.27 mM; Concentration of succinic acid ([2]; 10 mM added): 5.78 mM; Concentration of fumaric acid ([2]; 50 mM added): 0.21 mM; Concentration of malic acid ([2]; 50 mM added): 42.05 mM; Concentration of succinic acid ([2]; 50 mM added): 9.84 mM; Concentration of malic acid in fermentate at completion of fermentation (pH 4.6) ([3]; strain OLL1255): 0.35 mM; Concentration of succinic acid in fermentate at completion of fermentation (pH 4.6) ([6]; strain OLL1247): 1.53 mM; Concentration of succinic acid in fermentate at completion of fermentation (pH 4.6) ([6]; strain OLL1255): 1.46 mM; Concentration of succinic acid in fermentate at completion of fermentation (pH 4.6) ([6]; strain OLL205013): 1.53 mM; Concentration of succinic acid in fermentate at completion of fermentation (pH 4.6) ([6]; strain P1902901): 1.38 mM; EPS concentration with the culturing time (FIG. 1) [7]: higher concentration compared with the control |
